Source: US20070142395A1, “Treatment of sexual dysfunction with 1-[3-[4-(3-chlorophenyl)-1-piperazinyl]propyl]-5-methoxy-3,4-dihydro-2(1H)-quinolone or salt thereof” (Vela Pharmaceuticals, Inc., priority 2005, published 2007)

System: patients with MDD
Assay: CSFQ shift analysis (sexual dysfunction / no sexual dysfunction by threshold), same clinical study
Type: in vivo, Humans
Conditions: shift baseline to Day 56, LOCF, 5 mg BID
Method: A double-blind, randomized, placebo-controlled, parallel-group study was performed to evaluate the efficacy, safety and tolerability of OPC-14523 in patients with MDD. The patients selected for participation in the trial had to meet DSM-IV-TR criteria for MDD (296.2x or 296.3x; diagnosis via MINI) and had had symptoms of depression for at least 2 months before the start of the double-blind treatment. Among other drugs prohibited during the study, patients were prohibited from taking drugs used to enhance sexual function, including, but not limited to, sildenafil, tadalafil and vardenafil, or taking psychopharmacologic drugs.
Each patient was expected to participate for up to 10 weeks. The 10 weeks included: i) a 4- to 10-day screening period, during which potential participants were administered placebo in a single-blind manner; ii) an 8-week double-blind treatment period; and iii) a 4- to 10- day post-treatment visit period. Baseline evaluations, including assessment of sexual function, were conducted on Day −1. The next day, Day 1, the double-blind medication was begun. All treatment was on an outpatient basis.
The dosages studied were 5 mg BID OPC-14523 (10 mg total daily dose of immediate release tablet of Example 1) and placebo. The drugs were taken after meals in the morning and in the evening, about 12 hours apart.
Data on sexual function were collected using the Changes in Sexual Function Questionnaire (CSFQ). The CSFQ is a 14-item self-report measure of sexual functioning vis-â-vis experiences of pleasure, desire, arousal, and orgasm, with a 5-point response option for each item. The 14-item validated CSFQ was developed from a questionnaire comprising 35 and 36 items for female and male respondents, respectively (Clayton et al., Psychopharmacol Bull. 33(4):731-45 (1997) and Clayton et al., Psychopharmacol Bull. 33(4):747-53 (1997), each incorporated herein by reference in its entirety). The CSFQ has also been independently validated (Bobes et al., J Sex Marital Ther. 26(2): 119-31(2000)). The 14-item CSFQ includes items 8, 11, 14, 19-24 from the interview version of the CSFQ (“CSFQ-I”); Clayton et al., Psychopharmacol Bull. 33(4):731-45 (1997)). The CSFQ differs for men and women, reflecting some variation in wording of items. Males were given the male clinical version, CSFQ-M-C, and women were given the female clinical version, CSFQ-F-C. CSFQ-F-C includes items 25, 27, 28, 30 and 31 from the questions for women on the CSFG-I. CSFQ-M-C includes items 28-32 from the questions for men on the CSFQ-I, as well as item 25 from the questions for women.
The 14-item CSFQ has subscales for sexual pleasure (1 item), desire/frequency (2 items), desire/interest (3 items), arousal (3 items), and orgasm (3 items). In addition, a 14-item total score may be calculated. Higher scores are indicative of more favorable sexual functioning. Threshold scores for total and sub-scales have been defined. A score below the threshold score indicates dysfunction.
The construction of shift tables is a routine analysis that is often carried out in the analysis of clinical trial data. For the data herein, the analysis was constructed by categorizing the subjects' scores at baseline and then separately at Day 56 according to having sexual dysfunction (SD) or no sexual dysfunction (NSD). These categories were defined by the threshold values specified in the CSFQ (see Table 4). The cross-classification of the baseline categories with the Day 56 categories results in a 2×2 table with the cells NSD/NSD, NSD/SD, SD/NSD, and SD/SD. Two categories represent the number and percent of subjects who stayed in the same category from baseline to Day 56 (NSD/NSD and SD/SD cells). The other two categories represent the number and percentage of subjects who shifted either for better (SD/NSD cell) or worse (NSD/SD cell). In the tables below, “remained low” refers to the SD/SD category. […]

With `COc1cccc2c1CCC(=O)N2CCCN1CCN(c2cccc(Cl)c2)CC1` [OPC-14523, 1-[3-[4-(3-chlorophenyl)-1-piperazinyl]propyl]-5-methoxy-3,4-dihydro-2(1H)-quinolone] the “CSFQ Arousal/Excitement: Improved (Low→Normal), %” value (all patients (men and women)) was 6%, the “CSFQ Arousal/Excitement: Remained Low, %” value (all patients (men and women)) was 84% and the “CSFQ Arousal/Excitement: Remained Normal, %” value (all patients (men and women)) was 7%. For the same compound, the “CSFQ Arousal/Excitement: Worsened (Normal→Low), %” value (all patients (men and women)) was 3 (3%), the “CSFQ Desire/Frequency: Improved (Low→Normal), %” value (all patients (men and women)) was 13% and the “CSFQ Desire/Frequency: Remained Low, %” value (all patients (men and women)) was 75%. The “CSFQ Desire/Frequency: Remained Normal, %” value (all patients (men and women)) was 9%, the “CSFQ Desire/Frequency: Worsened (Normal→Low), %” value (all patients (men and women)) was 3% and the “CSFQ Desire/Interest: Improved (Low→Normal), %” value (all patients (men and women)) was 7%. For the same compound, the “CSFQ Desire/Interest: Remained Low, %” value (all patients (men and women)) was 78%, the “CSFQ Desire/Interest: Remained Normal, %” value (all patients (men and women)) was 12% and the “CSFQ Desire/Interest: Worsened (Normal→Low), %” value (all patients (men and women)) was 3 (3%). The “CSFQ Orgasm/Completion: Improved (Low→Normal), %” value (all patients (men and women)) was 12%, the “CSFQ Orgasm/Completion: Remained Low, %” value (all patients (men and women)) was 64% and the “CSFQ Orgasm/Completion: Remained Normal, %” value (all patients (men and women)) was 17%. The “CSFQ Orgasm/Completion: Worsened (Normal→Low), %” value (all patients (men and women)) was 7%, the “CSFQ Pleasure: Improved (Low→Normal), %” value (all patients (men and women)) was 5% and the “CSFQ Pleasure: Remained Low, %” value (all patients (men and women)) was 91%. For the same compound, the “CSFQ Pleasure: Remained Normal, %” value (all patients (men and women)) was 3%, the “CSFQ Pleasure: Worsened (Normal→Low), %” value (all patients (men and women)) was 0 (0%) and the “CSFQ Total Score: Improved (Low→Normal), %” value (all patients (men and women)) was 16%. The “CSFQ Total Score: Remained Low, %” value (all patients (men and women)) was 42%, the “CSFQ Total Score: Remained Normal, %” value (all patients (men and women)) was 39% and the “CSFQ Total Score: Worsened (Normal→Low), %” value (all patients (men and women)) was 3 (3%). For the same compound, the “CSFQ Arousal/Excitement: Improved (Low→Normal), %” value (men only) was 2%, the “CSFQ Arousal/Excitement: Remained Low, %” value (men only) was 79% and the “CSFQ Arousal/Excitement: Remained Normal, %” value (men only) was 15%. The “CSFQ Arousal/Excitement: Worsened (Normal→Low), %” value (men only) was 4%, the “CSFQ Desire/Frequency: Improved (Low→Normal), %” value (men only) was 13% and the “CSFQ Desire/Frequency: Remained Low, %” value (men only) was 77%. The “CSFQ Desire/Frequency: Remained Normal, %” value (men only) was 9%, the “CSFQ Desire/Frequency: Worsened (Normal→Low), %” value (men only) was 2% and the “CSFQ Desire/Interest: Improved (Low→Normal), %” value (men only) was 2%. For the same compound, the “CSFQ Desire/Interest: Remained Low, %” value (men only) was 81%, the “CSFQ Desire/Interest: Remained Normal, %” value (men only) was 17% and the “CSFQ Desire/Interest: Worsened (Normal→Low), %” value (men only) was 0 (0%). The “CSFQ Orgasm/Completion: Improved (Low→Normal), %” value (men only) was 9%, the “CSFQ Orgasm/Completion: Remained Low, %” value (men only) was 68% and the “CSFQ Orgasm/Completion: Remained Normal, %” value (men only) was 15%. The “CSFQ Orgasm/Completion: Worsened (Normal→Low), %” value (men only) was 9%, the “CSFQ Pleasure: Improved (Low→Normal), %” value (men only) was 2% and the “CSFQ Pleasure: Remained Low, %” value (men only) was 91%. For the same compound, the “CSFQ Pleasure: Remained Normal, %” value (men only) was 6%, the “CSFQ Pleasure: Worsened (Normal→Low), %” value (men only) was 0 (0%) and the “CSFQ Total Score: Improved (Low→Normal), %” value (men only) was 15%. For the same compound, the “CSFQ Total Score: Remained Low, %” value (men only) was 40%, the “CSFQ Total Score: Remained Normal, %” value (men only) was 43% and the “CSFQ Total Score: Worsened (Normal→Low), %” value (men only) was 2%. The “CSFQ Arousal/Excitement: Improved (Low→Normal), %” value (women only) was 9%, the “CSFQ Arousal/Excitement: Remained Low, %” value (women only) was 88% and the “CSFQ Arousal/Excitement: Remained Normal, %” value (women only) was 1 (1%). The “CSFQ Arousal/Excitement: Worsened (Normal→Low), %” value (women only) was 1 (1%), the “CSFQ Desire/Frequency: Improved (Low→Normal), %” value (women only) was 13% and the “CSFQ Desire/Frequency: Remained Low, %” value (women only) was 74%. The “CSFQ Desire/Frequency: Remained Normal, %” value (women only) was 9%, the “CSFQ Desire/Frequency: Worsened (Normal→Low), %” value (women only) was 4% and the “CSFQ Desire/Interest: Improved (Low→Normal), %” value (women only) was 10%. The “CSFQ Desire/Interest: Remained Low, %” value (women only) was 76%, the “CSFQ Desire/Interest: Remained Normal, %” value (women only) was 9% and the “CSFQ Desire/Interest: Worsened (Normal→Low), %” value (women only) was 4%. The “CSFQ Orgasm/Completion: Improved (Low→Normal), %” value (women only) was 15%, the “CSFQ Orgasm/Completion: Remained Low, %” value (women only) was 61% and the “CSFQ Orgasm/Completion: Remained Normal, %” value (women only) was 18%. The “CSFQ Orgasm/Completion: Worsened (Normal→Low), %” value (women only) was 6%, the “CSFQ Pleasure: Improved (Low→Normal), %” value (women only) was 7% and the “CSFQ Pleasure: Remained Low, %” value (women only) was 91%. For the same compound, the “CSFQ Pleasure: Remained Normal, %” value (women only) was 1 (1%), the “CSFQ Pleasure: Worsened (Normal→Low), %” value (women only) was 0 (0%) and the “CSFQ Total Score: Improved (Low→Normal), %” value (women only) was 16%. For the same compound, the “CSFQ Total Score: Remained Low, %” value (women only) was 43%, the “CSFQ Total Score: Remained Normal, %” value (women only) was 37% and the “CSFQ Total Score: Worsened (Normal→Low), %” value (women only) was 3%.
